Reference: PMC12467382, “Synthesis and Bioevaluation of Chalcones as Broad-Spectrum Antiviral Compounds Against Single-Stranded RNA Viruses” (Biomolecules, 2025)

How the values were obtained:
[1] = system: mTOR signaling; assay: Western blot of prps6 and rps6 as readouts of mTOR signaling in PANC-1 cells; assay type: cell-based; details: 72 h, chalcones 10 µM, rapamycin 10 nM
Protocol: PANC-1 cells were cultured in 6-well dishes and were lysed using modified radioimmunoprecipitation assay (RIPA) buffer (20 mM HEPES, pH 7.0, 150 mM NaCl, 1 mM EDTA, 1% NP-40, 1% deoxycholate, and 0.1% sodium dodecyl sulfate [SDS]) containing a complete protease inhibitor cocktail (Roche, Mannheim, Germany) and PhosSTOP phosphatase inhibitor cocktail (Roche, Mannheim, Germany). Protein concentrations were determined using the bicinchoninic acid (BCA) protein assay kit (Pierce, Rockford, IL, USA) according to manufacturer’s instructions. Cell lysates with 25 µg of protein were resolved on 12% sodium dodecyl sulfate-polyacrylamide gel electrophoresis (SDS-PAGE) gels and electro-transferred onto polyvinylidene difluoride (PVDF) membranes (Trans-Blot Turbo Transfer System, BioRad, Hercules, CA, USA). The samples were probed with rabbit monoclonal antibodies for the P-rps6 (1:1000) protein (Cell Signaling, Danvers, MA, USA) and mouse monoclonal antibodies for rps6 (1:1000) (Cell Signaling) and β-actin (1:5000) (Abcam, Waltham, MA, USA) proteins. Blots were visualized using anti-rabbit or anti-mouse horseradish peroxidase (HRP)-conjugated antibodies (Cell Signaling) and chemiluminescence reagent (Thermo Fisher Scientific, Waltham, MA, USA).
PANC-1 cells were chosen for this study as they are highly dependent on mTOR for their growth. PANC-1 cells were cultured and treated with the positive control rapamycin (10 nM) and chalcones NM5, 8a, 8o, 8s, 8v, and 8w (10 μM) for 72 h. Rapamycin and the chalcones were dissolved in 100% DMSO and dosed so that the final DMSO concentration was 0.1%. Cell lysates were collected and analyzed to determine the relative protein expression levels of rps6, prps6, and β-actin as a loading control (see Figure 12).

[2] = system: Hs27 cells; assay: 48 h MTS growth inhibition assay in Hs27 cells; assay type: cell-based, human; details: for EC50: Homo sapiens, HS27, 48 h, read-out: Hs27 48 h EC50; for Hs27 48 h EC10: highest concentration giving 90% relative new cell growth after 48 h, 0.5% DMSO
Protocol: A cell growth assay using the MTS reagent was conducted to assess the general toxicity of each chalcone compound. […] Experiments were conducted in triplicate. In a typical experiment, there are two plates. The first is the control plate, which allows one to assess the starting cell population on the day of drug addition (Day 0). The second plate is the test plate where cells are plated and tested with different drug concentrations on Day 0. For example, either CHO cells or Hs27 cells were plated in a 200 µL volume at 1000 cells/well on both the control and test plates and incubated overnight to allow the cells to adhere. On Day 0, 1 μL of PBS was added to the control plate wells so that their total volume was 201 μL. MTS reagent (Promega Cell Titer 96 Aqueous non-radioactive cell proliferation reagent, Promega, Madison, WI, USA) was added (20 μL) to each well on the control plate, and that plate was incubated for 4 h in a 5% CO2 atmosphere at 37 °C and then read on the plate reader.
(§1) On Day 0, 1 μL of a 200× stock solution of each chalcone was added to the respected well on the test plate, and each condition was tested in triplicate. Drug solutions were prepared in advance in 100% DMSO and dosed so that the final DMSO concentration was 0.5%. For example, 1 μL of chalcone solution was added to the cells plated in each well in 200 μL of media. Of note, the respective chalcone addition occurred after an initial overnight incubation of each cell line in each well to reach Day 0 (the drugging day). After the chalcone was added, the cells were incubated in 5% CO2 for 48 h at 37 °C. After 48 h, the MTS reagent (Promega, Madison, WI, USA) was added (20 μL), and the test plates were incubated for an additional 4 h, and then, absorbance at 490 nm was measured on a BioTek Synergy MX plate reader. […] IC50 values were determined from the corresponding plot of relative absorbance at 490 nm vs. the drug concentration.
(§2) For highly colored materials like the chalcones, it is important to consider the contribution of the compound’s own absorbance to the MTS assay. To correct for the absorbance contribution of the chalcone itself, we measured each chalcone’s absorbance (Chalcone Abs) at 490 nm at the respective concentration (e.g., 10 µM) and subtracted the absorbance of the media background (blank Abs). This net value was then subtracted out of the Day 2 absorbance value to provide the % relative growth via the following equation:(1) % Relative Growth = (Day 2 Abs−Day 2 blank Abs)−Chalcone Abs−blank Abs−(Day 0 Abs−Day 0 blank Abs)/(Day 2 Control Abs −Day 2 blank Abs)−(Day 0 Abs−Day 0 blank Abs) ×100%
With the chalcones in hand, we then evaluated their growth-inhibition properties in Chinese hamster ovary (CHO-K1) cells and human Hs27 fibroblast cells.

[3] = system: CHO-K1 cells; assay: cells; assay type: cell-based, Chinese hamster; details: for CHOK1 48 h EC10: Chinese hamster; for EC50: Cricetulus griseus, CHO-K1, 48 h, read-out: CHOK1 48 h EC50
Protocol: A cell growth assay using the MTS reagent was conducted to assess the general toxicity of each chalcone compound. Briefly, cell growth was assayed in sterile 96-well microtiter plates (Costar 3599, Corning Inc., Corning, NY, USA) in the presence of each chalcone. Experiments were conducted in triplicate. In a typical experiment, there are two plates. The first is the control plate, which allows one to assess the starting cell population on the day of drug addition (Day 0). The second plate is the test plate where cells are plated and tested with different drug concentrations on Day 0. For example, either CHO cells or Hs27 cells were plated in a 200 µL volume at 1000 cells/well on both the control and test plates and incubated overnight to allow the cells to adhere. On Day 0, 1 μL of PBS was added to the control plate wells so that their total volume was 201 μL. MTS reagent (Promega Cell Titer 96 Aqueous non-radioactive cell proliferation reagent, Promega, Madison, WI, USA) was added (20 μL) to each well on the control plate, and that plate was incubated for 4 h in a 5% CO2 atmosphere at 37 °C and then read on the plate reader.
as §1, §2
With the chalcones in hand, we then evaluated their growth-inhibition properties in Chinese hamster ovary (CHO-K1) cells and human Hs27 fibroblast cells. […] The results are shown in Table 2 along with a SAR summary of our findings in the host Hs27 cells.

[4] = system: mTOR signaling; design: method as in PMID 28442256; details: SGR2 and Huh7.5 cell lines; cited from earlier work
[5] = system: PIV5-GFP; assay: PIV5-GFP viral GFP expression in Hs27 cells by flow cytometry; assay type: cell-based, parainfluenza virus 5; details: 10 µM; Hs27 cells infected with PIV5-GFP
Protocol: Parainfluenza virus 5 (PIV5) expressing green fluorescence protein (GFP) was derived from cDNA, grown at 37 °C in Madin–Darby bovine kidney (MDBK) cells and titered on CV-1 (African green monkey kidney) cells with a fibroblast morphology as previously described. MDBK and CV-1 cells were the kind gift of Dr. Robert Lamb (Northwestern University). Cells were infected with virus diluted in DMEM supplemented with 10% bovine serum albumin (BSA) for 1 h or mock infected with media alone. Following incubation, cells were washed with phosphate-buffered saline (PBS) and cultured in DMEM supplemented with 2% heat-inactivated (HI) FBS.
Chalcone treatments were performed in DMEM supplemented with 10% HI FBS at the indicated concentrations and for indicated periods of time. Chalcone stocks were reconstituted in 100% dimethyl sulfoxide (DMSO) at a concentration of 10 mM and were serially diluted to working concentrations in DMSO. DMSO control treatments to test the effect of the vehicle were performed at volumes corresponding to the volume of chalcone added during each experiment (i.e., 1 µL chalcone DMSO solution/1 mL DMEM [10 µM] utilized alongside the DMSO control of 1 µL/1 mL DMEM). For cytotoxicity assays, untreated controls were subtracted from DMSO and chalcone sample values to account for the background signal.
For cytotoxicity assays, cells were stained with propidium iodide (PI) at a dilution of 1:100. Cell viability was determined via flow cytometry using the CytoFLEX (Beckman Coulter, Brea, CA, USA). CytExpert software (Beckman Coulter, version 2.4) was used to analyze independent events. PIV5 infection was monitored using flow cytometry via the FITC channel by analyzing GFP expression of individual cells. ZIKV infection was monitored utilizing Flavivirus group antigen–antibody (D1-4G2-4-15; Novus Biologicals, Littleton, CO, USA) staining for the ZIKV envelope protein. Cells were fixed and permeabilized using eBioscience Intracellular Fixation and Permeabilization Buffer (Invitrogen, Thermo Fisher Scientific, MA, USA) according to the manufacturer’s instructions. Secondary staining was performed using an anti-Alexa Fluor 488 (AF488) antibody (Invitrogen, Thermo Fisher Scientific, MA, USA). OC43 infection was monitored utilizing a primary antibody targeted toward the OC43 nucleocapsid protein (NP, MAB9013, Sigma-Aldrich, St. Louis, MO, USA). Secondary staining was performed using an AF488 antibody. Cells were fixed and permeabilized as previously described. LACV infection was monitored utilizing an anti-LACV Gc 807.31ab antibody kindly provided by Andrew Pekosv. Secondary staining was performed using an AF488 antibody. Cells were fixed and permeabilized as previously described.
To measure the effect of chalcone treatment on PIV5 virus growth, Hs27 cells were infected with PIV5-GFP. This engineered negative sense single-stranded RNA virus expresses GFP, which serves as a genome-encoded protein readout. After entering a cell, PIV5 must first undergo primary transcription to convert its genome into mRNA. As genome replication begins, nascent genomes then become templates for further conversion to mRNA and viral gene expression becomes amplified in a process called secondary transcription. For viral proteins to be detectable in cell culture, this amplification must first take place, making the expression of GFP a direct indicator of whether secondary transcription has successfully occurred. […] As shown in the representative data in Figure 4A, ~82% of DMSO-treated PIV5-GFP infected cells were positive for GFP expression. This was reduced to ~2% GFP-positive cells after treatment with 8o. […] These chalcones were therefore selected for further screening for cytotoxicity.
The GFP IC50 was defined as the concentration of chalcone required to inhibit the GFP expression (as measured via flow cytometry) by 50% when compared to DMSO-treated cells. […]

SMILES | prps6 expression relative to DMSO control [1] | total rps6 protein expression relative to DMSO control [1] | EC50 [2] | Hs27 48 h EC10 [2] | CHOK1 48 h EC10 [3] | EC50 [3] | Effect on mTOR signaling [4] | % GFP relative to DMSO treated (10 µM) [5]
CO[C@H]1C[C@@H]2CC[C@@H](C)[C@@](O)(O2)C(=O)C(=O)N2CCCC[C@H]2C(=O)O[C@H]([C@H](C)C[C@@H]2CC[C@@H](O)[C@H](OC)C2)CC(=O)[C@H](C)/C=C(\C)[C@@H](O)[C@@H](OC)C(=O)[C@H](C)C[C@H](C)/C=C/C=C/C=C/1C [rapamycin, reference compound] | loss of prps6 expression | no significant difference |  |  |  |  |  | 
COc1ccc(/C=C/C(=O)c2cc(Br)cc(Br)c2O)cc1OC [NM5, (2E)-1-(3,5-Dibromo-2-hydroxyphenyl)-3-(3,4-dimethoxyphenyl)-2-propen-1-one, reference compound] | stimulate this prps6 mTOR readout |  | 1.8 ± 0.1 µM | 1.0 ± 0.1 µM | 1.1 ± 0.1 µM | 6.2 ± 0.3 µM | inhibit mTOR signaling | 
CCOc1ccc(Br)cc1/C=C/C(=O)c1c(O)cccc1OCCC(C)C [Chalcone 8r, (2E)-3-(5-Bromo-2-Ethoxy-Phenyl)-1-[2-Hydroxy-6-(3-Methyl-Butoxy)-Phenyl]-Propenone] |  |  | 16.9 ± 2 µM | 9.4 ± 0.7 µM | 4.7 ± 0.4 µM | 6.8 ± 0.7 µM |  | 108.7%
CCOc1ccc(Br)cc1/C=C/C(=O)c1c(O)cccc1OC [Chalcone 8q, (2E)-3-(5-Bromo-2-Ethoxy-Phenyl)-1-(2-Hydroxy-6-Methoxy-Phenyl)-Propenone] |  |  | 9.9 ± 1 µM | 2.7 ± 0.04 µM | 4.3 ± 0.4 µM | 6 ± 0.3 µM |  | 
CCOc1ccc(Br)cc1/C=C/C(=O)c1c(O)cccc1OCCc1ccccc1 [Chalcone 8t, (2E)-3-(5-Bromo-2-Ethoxy-Phenyl)-1-[2-Hydroxy-6-Phenethyloxy]-Propenone] |  |  | 10.3 ± 0.5 µM | 6.4 ± 0.5 µM | 1.1 ± 0.1 µM | 2.6 ± 0.2 µM |  | 84.9%
COc1ccc(Br)cc1/C=C/C(=O)c1c(O)cccc1OCCc1ccccc1 [Chalcone 8u, (2E)-3-(5-Bromo-2-Methoxy-Phenyl)-1-[2-Hydroxy-6-Phenethyloxy]-Propenone] |  |  | 4.9 ± 0.6 µM | 3.4 ± 0.5 µM | 1.0 ± 0.1 µM | 4.3 ± 0.3 µM |  | 
COc1ccc(/C=C/C(=O)c2c(O)cccc2OCc2ccccc2)c(OC)c1OC [Chalcone 8y, (2E)-1-(2-Benzloxy-6-Hydroxy-Phenyl)-3-(2,3,4-Trimethoxy-Phenyl)-Propenone] |  |  | 7.7 ± 0.2 µM | 6.3 ± 0.2 µM | 7.2 ± 0.6 µM | 15.8 ± 1 µM |  | 
